# Laboratory results from US20230111310A1, “CARBOXYLIC ACID DERIVATIVE-SUBSTITUTED IMINO ARYL COMPOUND, PREPARATION METHOD THEREFOR, HERBICIDAL COMPOSITION AND USE THEREOF” (Qingdao Kingagroot Chemical Compound Co., Ltd., priority 2020, published 2023).
# Test system: Soybeans
# Experiment: Pre-emergence stage, crop selectivity
# Type: in vivo
# Conditions: 30 g/ha, 4 weeks
# Method: (§1) The activity level criteria for plant damage (i.e., growth control rate) are as follows:
# (§2) The aforementioned seeds of monocotyledonous and dicotyledonous weeds and main crops were put into a plastic pot loaded with soil and covered with 0.5-2 cm soil. The test compounds of the present invention was dissolved with acetone, then added with tween 80, diluted by a certain amount of water to reach a certain concentration, and sprayed immediately after sowing. The obtained seeds were incubated for 4 weeks in the greenhouse after spraying and the test results were observed. It was observed that the herbicide mostly had excellent effect at the application rate of 500, 250, 125, 60, 30, 15, 7.5 g/ha, especially to weeds such as Echinochloa crusgalli. Digitaria sanguinalis and Abutilon theophrasti, etc. And many compounds had good selectivity for corn, cotton, wheat, rice, soybean, and peanut etc. In addition, evaluate the weed control effect with the above activity standard level.
row,SMILES,plant damage level Soybeans
1,CC(C)=NOC(=O)[C@@H](C)O/N=C/c1cc(-n2c(=O)cc(C(F)(F)F)n(C)c2=O)c(F)cc1Cl [248(R)],0 (Level 0: growth control rate is less than 5%)

# Test system: corn
# Experiment: Pre-emergence stage, crop selectivity
# Type: in vivo
# Conditions: 30 g/ha, 4 weeks
# Method: as §1, §2
row,SMILES,plant damage level Corn
1,CC(C)=NOC(=O)[C@@H](C)O/N=C/c1cc(-n2c(=O)cc(C(F)(F)F)n(C)c2=O)c(F)cc1Cl [248(R)],0 (Level 0: growth control rate is less than 5%)

# Test system: cotton
# Experiment: Pre-emergence stage, crop selectivity
# Type: in vivo
# Conditions: 30 g/ha, 4 weeks
# Method: as §1, §2
row,SMILES,plant damage level Cotton
1,CC(C)=NOC(=O)[C@@H](C)O/N=C/c1cc(-n2c(=O)cc(C(F)(F)F)n(C)c2=O)c(F)cc1Cl [248(R)],0 (Level 0: growth control rate is less than 5%)

# Test system: Peanut
# Experiment: Pre-emergence stage, crop selectivity
# Type: in vivo
# Conditions: 30 g/ha, 4 weeks
# Method: as §1, §2
row,SMILES,plant damage level Peanut
1,CC(C)=NOC(=O)[C@@H](C)O/N=C/c1cc(-n2c(=O)cc(C(F)(F)F)n(C)c2=O)c(F)cc1Cl [248(R)],0 (Level 0: growth control rate is less than 5%)

# Test system: Descurainia sophia
# Experiment: Weeding effect in pre-emergence stage
# Type: in vivo
# Conditions: 30 g/ha, 4 weeks
# Method: as §1, §2
row,SMILES,activity level (growth control rate) Descurainia sophia
1,CC(C)=NOC(=O)[C@@H](C)O/N=C/c1cc(-n2c(=O)cc(C(F)(F)F)n(C)c2=O)c(F)cc1Cl [248(R)],5 (Level 5: growth control rate is above 85%)

# Test system: Amaranthus retroflexus
# Experiment: Weeding effect in pre-emergence stage
# Type: in vivo
# Conditions: 30 g/ha, 4 weeks
# Method: as §1, §2
row,SMILES,activity level (growth control rate) Amaranthus retroflexus
1,CC(C)=NOC(=O)[C@@H](C)O/N=C/c1cc(-n2c(=O)cc(C(F)(F)F)n(C)c2=O)c(F)cc1Cl [248(R)],5 (Level 5: growth control rate is above 85%)

# Test system: Capsella bursa-pastoris
# Experiment: Weeding effect in pre-emergence stage
# Type: in vivo
# Conditions: 30 g/ha, 4 weeks
# Method: as §1, §2
row,SMILES,activity level (growth control rate) Capsella bursa-pastoris
1,CC(C)=NOC(=O)[C@@H](C)O/N=C/c1cc(-n2c(=O)cc(C(F)(F)F)n(C)c2=O)c(F)cc1Cl [248(R)],5 (Level 5: growth control rate is above 85%)

# Test system: Abutilon theophrasti
# Experiment: Weeding effect in pre-emergence stage
# Type: in vivo
# Conditions: 30 g/ha, 4 weeks
# Method: as §1, §2
row,SMILES,activity level (growth control rate) Abutilon theophrasti
1,CC(C)=NOC(=O)[C@@H](C)O/N=C/c1cc(-n2c(=O)cc(C(F)(F)F)n(C)c2=O)c(F)cc1Cl [248(R)],5 (Level 5: growth control rate is above 85%)

# Test system: Setaria viridis
# Experiment: Weeding effect in pre-emergence stage
# Type: in vivo
# Conditions: 30 g/ha, 4 weeks
# Method: as §1, §2
row,SMILES,activity level (growth control rate) Setaria viridis
1,CC(C)=NOC(=O)[C@@H](C)O/N=C/c1cc(-n2c(=O)cc(C(F)(F)F)n(C)c2=O)c(F)cc1Cl [248(R)],5 (Level 5: growth control rate is above 85%)

# Test system: Veronica didyma Tenore
# Experiment: Weeding effect in pre-emergence stage
# Type: in vivo
# Conditions: 30 g/ha, 4 weeks
# Method: as §1, §2
row,SMILES,activity level (growth control rate) Veronica didyma Tenore
1,CC(C)=NOC(=O)[C@@H](C)O/N=C/c1cc(-n2c(=O)cc(C(F)(F)F)n(C)c2=O)c(F)cc1Cl [248(R)],5 (Level 5: growth control rate is above 85%)

# Test system: Digitaria sanguinalis
# Experiment: Weeding effect in post-emergence stage
# Type: in vivo
# Conditions: Dose 15 g/ha; level of fresh weight growth control rate
# Summary of the method: (§3)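 Weeds were treated post-emergence at 2-3 leaves with compound doses from 7.5 up to 500 g/ha, formulated in acetone–Tween 80 with methyl oleate synergist. Efficacy was assessed as growth control after 3 weeks.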
row,SMILES,"Weeding effect in post-emergence stage, Digitaria sanguinalis"
1,CC(C)=NOC(=O)[C@@H](C)O/N=C/c1cc(-n2c(=O)cc(C(F)(F)F)n(C)c2=O)c(F)cc1Cl [248(R)],5 (Level 5: growth control rate is above 85%)

# Test system: Abutilon theophrasti
# Experiment: Weeding effect in post-emergence stage
# Type: in vivo
# Conditions: Dose 15 g/ha; level of fresh weight growth control rate
# Summary of the method: as §3
row,SMILES,"Weeding effect in post-emergence stage, Abutilon theophrasti"
1,CC(C)=NOC(=O)[C@@H](C)O/N=C/c1cc(-n2c(=O)cc(C(F)(F)F)n(C)c2=O)c(F)cc1Cl [248(R)],5 (Level 5: growth control rate is above 85%)

# Test system: Setaria viridis
# Experiment: Weeding effect in post-emergence stage
# Type: in vivo
# Conditions: Dose 15 g/ha; level of fresh weight growth control rate
# Summary of the method: as §3
row,SMILES,"Weeding effect in post-emergence stage, Setaria viridis"
1,CC(C)=NOC(=O)[C@@H](C)O/N=C/c1cc(-n2c(=O)cc(C(F)(F)F)n(C)c2=O)c(F)cc1Cl [248(R)],5 (Level 5: growth control rate is above 85%)

# Test system: Eleusine indica
# Experiment: Weeding effect in post-emergence stage
# Type: in vivo
# Conditions: Dose 15 g/ha; level of fresh weight growth control rate
# Summary of the method: as §3
row,SMILES,"Weeding effect in post-emergence stage, Eleusine indica"
1,CC(C)=NOC(=O)[C@@H](C)O/N=C/c1cc(-n2c(=O)cc(C(F)(F)F)n(C)c2=O)c(F)cc1Cl [248(R)],5 (Level 5: growth control rate is above 85%)

# Test system: Alopecurus japonicus
# Experiment: Weeding effect in post-emergence stage
# Type: in vivo
# Conditions: Dose 15 g/ha; level of fresh weight growth control rate
# Summary of the method: as §3
row,SMILES,"Weeding effect in post-emergence stage, Alopecurus japonicus"
1,CC(C)=NOC(=O)[C@@H](C)O/N=C/c1cc(-n2c(=O)cc(C(F)(F)F)n(C)c2=O)c(F)cc1Cl [248(R)],5 (Level 5: growth control rate is above 85%)

# Test system: Echinochloa crusgalli
# Experiment: Weeding effect in post-emergence stage
# Type: in vivo
# Conditions: Dose 15 g/ha; level of fresh weight growth control rate
# Summary of the method: as §3
row,SMILES,"Weeding effect in post-emergence stage, Echinochloa crusgalli"
1,CC(C)=NOC(=O)[C@@H](C)O/N=C/c1cc(-n2c(=O)cc(C(F)(F)F)n(C)c2=O)c(F)cc1Cl [248(R)],5 (Level 5: growth control rate is above 85%)
